# Source: patent US20180015072A1, “Tryptophan is a pro-drug for infectious diseases and cancers” (priority 2016, published 2018)
# Tests used:
# [1] = test system: hand foot mouth disease mice model; test: hand foot mouth disease mice model; assay type: in vivo; details: 320 mg/kg/day, China food and drug inspection Ins.
# [2] = test system: Venezuelan equine encephalitis viruses; assay type: cell-based
# [3] = test system: respiratory syncytial viruses; assay type: cell-based
# [4] = test system: human cytomegalovirus; assay type: cell-based
# [5] = test system: Herpes simplex virus 1; assay type: cell-based
# [6] = test system: MERS coronavirus; assay type: cell-based
# [7] = test system: vaccinia virus; assay type: cell-based
# [8] = test system: nun small cell lung cancer mice model; test: nun small cell lung cancer mice model; assay type: in vivo; details: 80 mg/kg/day, China Tongi medical university
# [9] = test system: yellow fever virus; assay type: cell-based
# [10] = test system: pancreatic cancer Mia PaCa2 cell; assay type: cell-based
# [11] = test system: tacaribe virus; assay type: cell-based
# [12] = test system: dengue viruses; assay type: cell-based
# [13] = test system: hepatitis B; assay type: cell-based
# [14] = test system: hepatitis C virus; assay type: cell-based
# [15] = test system: poliovirus; assay type: cell-based
# [16] = test system: influenza A H1N1 viruses; assay type: cell-based
# [17] = test system: chikungunya viruses; assay type: cell-based
# [18] = test system: rift valley fever virus; assay type: cell-based
# [19] = test system: human primary white cells
compound,measurement,setting,value
OC[C@H]1O[C@@H](Oc2c[nH]c3ccccc23)[C@H](O)[C@@H](O)[C@@H]1O [Indican],function in hand foot mouth disease mice model,[1],significant function
same,inhibition of Venezuelan equine encephalitis viruses,[2],inhibits
same,inhibition of respiratory syncytial viruses,[3],inhibits
same,inhibition of human cytomegalovirus,[4],inhibit
same,inhibition of Herpes simplex virus 1,[5],inhibit
same,inhibition of MERS coronavirus,[6],inhibits
same,inhibition of vaccinia virus,[7],inhibit
same,prevention and early stage treatment function in lung cancer mice model,[8],significant prevention and early stage treatment function
same,inhibition of yellow fever virus,[9],inhibits
same,inhibition of Mia PaCa2 cell growth,[10],inhibit
same,inhibition of tacaribe virus,[11],inhibit
same,inhibition of dengue viruses,[12],inhibits
same,function against hepatitis B,[13],does not show function
same,inhibition of hepatitis C virus,[14],inhibits
same,inhibition of poliovirus,[15],inhibit
same,inhibition of influenza A H1N1 viruses,[16],inhibits
same,inhibition of chikungunya viruses,[17],inhibits
same,inhibition of rift valley fever virus,[18],inhibit
N[C@@H](Cc1c[nH]c2ccccc12)C(=O)O [Tryptophan],function in hand foot mouth disease mice model,[1],significant function
same,inhibition of human cytomegalovirus,[4],inhibit
same,inhibition of Herpes simplex virus 1,[5],inhibit
same,inhibition of vaccinia virus,[7],inhibit
same,prevention and early stage treatment function in lung cancer mice model,[8],significant prevention and early stage treatment function
same,inhibition of Mia PaCa2 cell growth,[10],inhibit
same,inhibition of tacaribe virus,[11],inhibit
same,inhibition of poliovirus,[15],inhibit
same,safety for human primary white cells,[19],safe
same,inhibition of rift valley fever virus,[18],inhibit
